Several values for one entry are separate records, joined by “and”; a condition that tells them apart may be missing. Equal values may be shown once.
Experiments:
C57B1/Ks db/db mouse = experiment: Glycaemic control (blood glucose, oral glucose tolerance, 24 h glucose profile); assay type: in vivo; conditions: db/db mice
Text: Inflammation is also a feature of type II diabetic animals and man. […] However, as a result of the C57B1/Ks genetic background rather than the C57B1/6, the mice show loss of pancreatic function from around 6/7 weeks of age and by 10 weeks show frank diabetes.
• Daily: Food and water intake • Twice weekly: Body weight and glucose • Day 1: Weigh mice, dose compounds, provide measured amount of food, provide measured amount of water • Days 2, 5 and 8: Fed blood glucose concentration • Day 9: Oral glucose tolerance • Days 12 and 16: Fed blood glucose concentration • Day 19: 24 hr glycaemic assay • Days 22, 26 and 29: Fed blood glucose concentration • Day 33: 24 hr glycaemic assay • Day 38: Fed blood glucose concentration • Day 39: Body composition by Dexascan in anaesthetised mice • Day 41: Termination. Take blood samples for glucose, free fatty acids, triglycerides, cholesterol, insulin and HbA

C57B1/6 ob/ob mouse = experiment: Fed plasma HDL-cholesterol; assay type: in vivo; conditions: ob/ob mice; for Fed HDL cholesterol day 28: individual values; for percentage HDL cholesterol day 28: HDL as percentage of total cholesterol
Protocol: The following are a battery of tests used to elicit the effects of drugs on diseases including type I or II diabetes, obesity, dyslipidaemia, related metabolic disorders and cardiovascular disease. • a) Body weight: Bodyweights of all mice were measured twice weekly during the study. • b) Food intake: Food intake was measured by weight difference taking account of food wastage in the bottom of the cage. • c) Measurement of water consumption: Water intake was calculated daily for each animal, during the treatment period, by weight difference of the water bottle. • d) Oral Glucose Tolerance Test (OGTT): Glucose was dissolved in water (3 g/10 ml) and given to the mice orally at a rate of 3 g/kg. […] Blood samples were also taken at −30 minutes for insulin analysis. • e) Blood Glucose analysis: Duplicate 20 μl samples of blood of were taken for each individual sample and placed in a 96-well assay plate. To each well was added 180 μl aliquots of glucose oxidase reagent. Samples were mixed and then left for approximately 30 minutes. Samples were then analysed automatically using a SpectraMax-250 and SoftMax Pro software. • f) Plasma preparation: Blood was collected for the measurement of i) plasma insulin, ii) cholesterol, iii) free fatty acids or iv) triglyceride concentration. • i. Plasma insulin analysis: Plasma insulin was measured using 5 μl of plasma, compared with a mouse insulin standard using a 96-well micro-assay plate • ii. Plasma cholesterol analysis: To each sample was added 200 μl of infinity cholesterol liquid stable reagent. The samples were mixed and incubated for 5 minutes before reading at dual wavelengths of 500 and 660 nm. • iii. Plasma free fatty acids: 5 μl samples of plasma were measured into a 96-well assay plate, to which was added 0.2 ml of reagents NEFA C • iv. Plasma triglycerides analysis: To each well 200 μl aliquots of triglycerides reagent. […] Comparison with a calibrated standard allowed identification of types of tissue by their density. Dedicated software was using to quantify amounts of bone and fat. The mice were lightly anaesthetised, sufficient to keep them quiescent during this non-invasive technique. • h) Energy expenditure measurements: Energy expenditure was measured by open circuit indirect calorimetry with mice in their home cages. For studies of 24 h energy expenditure, mice were dosed with their allocated treatment and then measurements commenced. […] Plasma leptin was measured in fed mice using the Crystal Chem Elisa assay. • j) Plasma adiponectin: Adiponectin exerts some of its weight reduction effects via the brain. This is similar to the action of leptin, but the two hormones perform complementary actions, and can have additive effects. Plasma adiponectin was measured in overnight fasted mice using the 96-well B-Bridge Elisa assay. • k) Plasma HDL-cholesterol: Plasma HDL-cholesterol was measured in fed mice using the kit from Trinity Biotech. • l) 24 h blood glucose profile: This was determined in order to ensure that changes in the diurnal control of blood glucose were detected. Thus blood samples were obtained at three hourly intervals throughout a continuous 24 h period. • m) Plasma haemoglobin AIC: Samples (10 μl) were analysed using the AIC. […] The homogenate was then extracted overnight at 4° C. and centrifuged at 2000 g for 5 min. • o) Pancreatic islet histology: […] sections were cut using a Leica RM2125 rotary microtome, transferred to positively-charged glass slides and dried overnight at 42° C. Morphology was assessed using hematoxylin and eosin staining. • p) Liver glycogen: After centrifugation (3000×g for 15 min), an aliquot of the supernatant (10 μl) is assayed using the glucose oxidase method. […] 1 ml of chloroform is added and tubes vortexed and left at 4° C. for 2 h with vortexing every 30 min. 200 μl of 0.9% sodium chloride is added and after thorough vortexing, the mixture is centrifuged at 300×g for 5 min.

3T3L1 cells = experiment: Induction of adipocyte differentiation (Oil red O); assay type: cell-based; conditions: treated for 8 days
Protocol: In vitro vascular studies were carried out in rat isolated aortae by wire myography. PPARγ activation was investigated using reporter gene assays, a PPARγ competition-binding assay and an adipogenesis assay.
Cells were fixed and stained with Oil red O to identify fat droplets, to the presence of which indicates differentiation of fibroblasts into adipocytes. […] […].

[1] = system: dietary induced obese (DIO) mouse model; experiment: Growth (body weight, nose-anus length); assay type: in vivo; conditions: DIO mice; chronic dosing
Protocol: The following are a battery of tests used to elicit the effects of drugs on diseases including type I or II diabetes, obesity, dyslipidaemia, related metabolic disorders and cardiovascular disease. • a) Body weight: Bodyweights of all mice were measured twice weekly during the study. • b) Food intake: Food intake was measured by weight difference taking account of food wastage in the bottom of the cage. • c) Measurement of water consumption: Water intake was calculated daily for each animal, during the treatment period, by weight difference of the water bottle. • d) Oral Glucose Tolerance Test (OGTT): Glucose was dissolved in water (3 g/10 ml) and given to the mice orally at a rate of 3 g/kg. […] Samples were then analysed automatically using a SpectraMax-250 and SoftMax Pro software. • f) Plasma preparation: Blood was collected for the measurement of i) plasma insulin, ii) cholesterol, iii) free fatty acids or iv) triglyceride concentration. • i. Plasma insulin analysis: Plasma insulin was measured using 5 μl of plasma, compared with a mouse insulin standard using a 96-well micro-assay plate • ii. […] The samples were mixed and incubated for 5 minutes before reading at dual wavelengths of 500 and 660 nm. • iii. Plasma free fatty acids: 5 μl samples of plasma were measured into a 96-well assay plate, to which was added 0.2 ml of reagents NEFA C • iv. […]

[2] = 3.0 mg·kg−1 daily oral gavage (combination: both 3.0)
[3] = 0.3 mg·kg−1 daily oral gavage (combination: both 0.3)

Row | Compound | Glycaemic control versus control (C57B1/Ks db/db mouse) | Fed HDL cholesterol day 28 (C57B1/6 ob/ob mouse; [2]) | Fed HDL cholesterol day 28 (C57B1/6 ob/ob mouse; 3.0 mg·kg−1 daily oral gavage (combination: both 3.0), listed as Pure CBD) | Differentiation of fibroblasts into adipocytes (Oil Red O staining of fat droplets) (3T3L1 cells) | Effect on growth [1] | Fed HDL cholesterol day 28 (C57B1/6 ob/ob mouse; [3]) | percentage HDL cholesterol day 28 (C57B1/6 ob/ob mouse; [3]) | percentage HDL cholesterol day 28 (C57B1/6 ob/ob mouse; [2])
1 | C=C(C)[C@@H]1CCC(C)=C[C@H]1c1c(O)cc(CCCCC)cc1O [CBD, cannabidiol] | did not show significant differences in glycaemic control | increasing the amount and 3.31 and 3.00 and 3.36 and 3.63 and 2.98 and 3.38 and 3.18 | increasing the plasma HDL-cholesterol concentration | signs of fat droplet accumulation were apparent at all concentrations tested |  |  |  | 
2 | CCCc1cc(O)c2c(c1)OC(C)(C)[C@@H]1CCC(C)=C[C@@H]21 [THCV, tetrahydrocannabivarin] |  | 2.17 and 2.16 and 2.24 and 2.51 and 2.98 and 2.94 and 2.57 and 2.28 |  |  | without any effect on growth | 2.16 (3×) and 2.35 and 2.33 and 2.21 and 2.25 and 2.14 | 30.4% and 25.1% and 33.6% and 39.3% and 37.5% and 34.3% and 37.9% and 38.0% | 34.5% and 31.1% and 34.0% and 40.4% and 41.3% and 45.6% and 33.6% and 32.4%
